Literature values as cited in patent publication US20250340636A1, “ANTIBODIES TARGETING L1CAM AND USES THEREOF” (MEMORIAL SLOAN-KETTERING CANCER CENTER, priority 2023, published 2025).

Conditions: free drug, mice (Quintieri et al. 2005); cited from earlier work

COc1cccc2c1C(=O)c1c(O)c3c(c(O)c1C2=O)C[C@@](O)(C(=O)CO)C[C@@H]3O[C@H]1C[C@H]2[C@H](O[C@@H]3[C@@H](OC)OCCN32)[C@H](C)O1 [PNU-159682]
maximum tolerated dose: 0.015 mg/kg
